Legend:
[1] = system: Puccinia recondita f sp. tritici; test: Test F: wheat leaf rust, preventive spray on wheat seedlings; settings: 100 = 100% disease control; for Test F rating (% disease control): 10 ppm, wheat leaf rust, 0 = no control; for Test F disease control rating: 10 ppm test solution, 0 = no control relative to controls
[2] = system: Erysiphe graminis f sp. tritici; test: Test G: wheat powdery mildew, preventive spray on wheat seedlings; settings: 100 = 100% disease control; for Test G rating (% disease control): 10 ppm, wheat powdery mildew, 0 = no control; for Test G disease control rating: 10 ppm test solution, 0 = no control relative to controls
[3] = system: Zymoseptoria tritici; test: Test E: wheat leaf blotch, preventive spray on wheat seedlings; settings: 100 = 100% disease control; for Test E rating (% disease control): 10 ppm, wheat leaf blotch, 0 = no control; for Test E disease control rating: 10 ppm test solution, 0 = no control relative to controls
Source text: General protocol for preparing test solutions for Tests A-G: the test compounds were first dissolved in acetone in an amount equal to 3% of the final volume and then suspended at the desired concentration (in ppm) in acetone and purified water (50/50 mix by volume) containing 250 ppm of the surfactant PEG400 (polyhydric alcohol esters). The resulting test suspensions were then used in Tests A-G. Compounds were sprayed at a concentration of 50 ppm (*) or 10 ppm to the point of run-off on the test plants, the equivalent of a rate of 200 g/ha or 40 g/ha, respectively.
The test solution was sprayed to the point of run-off on wheat seedlings. The following day the seedlings were inoculated with a spore suspension of Zymoseptoria tritici (the causal agent of wheat leaf blotch) and incubated in a saturated atmosphere at 24° C. for 48 h, and then moved to a growth chamber at 20° C. for 17 days, after which time visual disease ratings were made.
Compounds with an asterisks (*) were applied at a concentration of 50 ppm, otherwise test solutions were applied at 10 ppm.

[4] = system: Stagonospora nodorum; test: Test D: wheat glume blotch, preventive spray on wheat seedlings; settings: 100 = 100% disease control; for Test D rating (% disease control): 10 ppm, wheat glume blotch, 0 = no control; for Test D disease control rating: 10 ppm test solution, 0 = no control relative to controls

SMILES	Test F rating (% disease control) [1] [%]	Test G rating (% disease control) [2] [%]	Test E rating (% disease control) [3] [%]	Test D rating (% disease control) [4] [%]	Test F disease control rating [1] [%]	Test G disease control rating [2] [%]	Test E disease control rating [3] [%]	Test D disease control rating [4] [%]
OC(Cn1cncn1)(C1=NOC(Cc2ccc(-c3ccccc3)cc2)C1)c1ccc(Cl)cc1 (single isomer, unassigned) [Compound 204]	100	99	0	77	–	–	–	–
OC(Cn1cncn1)(C1=NOC(Cc2ccc(-c3ccccc3)cc2)C1)c1ccc(Cl)cc1 (single isomer, unassigned) [Compound 205]	68	98	6	10	–	–	–	–
CC(C)(C)C(O)(Cn1cncn1)C1=NOC(CCOc2ccc(Cl)cc2)C1 (single isomer, unassigned) [Compound 208]	100	100	74	100	–	–	–	–
CC(C)(C)C(O)(Cn1cncn1)C1=NOC(CCOc2ccc(Cl)cc2)C1 (single isomer, unassigned) [Compound 209]	100	100	11	99	–	–	–	–
CC1(C(O)(Cn2cncn2)C2=NOC(COc3ccc(Cl)cc3)C2)CC1 (single isomer, unassigned) [Compound 224]	–	–	–	–	100	100	30	–
CC1(C(O)(Cn2cncn2)C2=NOC(COc3ccc(Cl)cc3)C2)CC1 (single isomer, unassigned) [Compound 225]	–	–	–	–	100	99	0	–
CC(C)(C)C(O)(Cn1cncn1)C1=NOC(COc2ccc(-c3ccccc3)cc2)C1 (single isomer, unassigned) [Compound 228]	–	–	–	–	86	99	12	0
CC(C)(C)C(O)(Cn1cncn1)C1=NOC(COc2ccc(-c3ccccc3)cc2)C1 (single isomer, unassigned) [Compound 229]	–	–	–	–	0	98	6	0
Cc1ccc(OCC2CC(C(O)(Cn3cncn3)C(C)(C)C)=NO2)cc1 (single isomer, unassigned) [Compound 234]	–	–	–	–	0	99	0	–
Cc1ccc(OCC2CC(C(O)(Cn3cncn3)C(C)(C)C)=NO2)cc1 (single isomer, unassigned) [Compound 235]	–	–	–	–	87	99	8	–
CC1(C(O)(Cn2cncn2)C2=NOC(COc3ccc(C(F)(F)F)cc3)C2)CC1 (single isomer, unassigned) [Compound 236]	–	–	–	–	100	100	16	99
CC1(C(O)(Cn2cncn2)C2=NOC(COc3ccc(C(F)(F)F)cc3)C2)CC1 (single isomer, unassigned) [Compound 237]	–	–	–	–	100	98	0	89
CC1(C(O)(Cn2cncn2)C2=NOC(COc3ccc(Br)cc3)C2)CC1 (single isomer, unassigned) [Compound 238]	–	–	–	–	100	99	0	99
CC1(C(O)(Cn2cncn2)C2=NOC(COc3ccc(Br)cc3)C2)CC1 (single isomer, unassigned) [Compound 239]	–	–	–	–	100	99	0	98
CC(C)(C)CC(O)(Cn1cncn1)C1=NOC(COc2ccc(C(F)(F)F)cc2)C1 (single isomer, unassigned) [Compound 240]	–	–	–	–	100	99	0	–
CC(C)(C)CC(O)(Cn1cncn1)C1=NOC(COc2ccc(C(F)(F)F)cc2)C1 (single isomer, unassigned) [Compound 241]	–	–	–	–	99	90	0	–
CC(C)(C)C(O)(Cn1cncn1)C1=NOC(COc2ccc(Cl)cc2)C1 (single isomer, unassigned) [Compound 242]	–	–	–	–	99	68	0	0

SMILES	Test F rating (% disease control) [1] [%]	Test G rating (% disease control) [2] [%]	Test E rating (% disease control) [3] [%]	Test D rating (% disease control) [4] [%]	Test F disease control rating [1] [%]	Test G disease control rating [2] [%]	Test E disease control rating [3] [%]	Test D disease control rating [4] [%]
CC(C)(C)C(O)(Cn1cncn1)C1=NOC(COc2ccc(Cl)cc2)C1 (single isomer, unassigned) [Compound 243]	–	–	–	–	99	0	0	0
CC(C)(C)CC(O)(Cn1cncn1)C1=NOC(COc2ccc(F)cc2)C1 (single isomer, unassigned) [Compound 244]	–	–	–	–	100	99	0	99
CC(C)(C)CC(O)(Cn1cncn1)C1=NOC(COc2ccc(F)cc2)C1 (single isomer, unassigned) [Compound 245]	–	–	–	–	98	98	2	51
CCC(C)(C)C(O)(Cn1cncn1)C1=NOC(COc2ccc(F)cc2)C1 (single isomer, unassigned) [Compound 249]	–	–	–	–	100	100	0	100
CCC(C)(C)C(O)(Cn1cncn1)C1=NOC(COc2ccc(F)cc2)C1 (single isomer, unassigned) [Compound 250]	–	–	–	–	99	99	0	64
OC(Cn1cncn1)(C1=NOC(COc2ccc(Cl)cc2)C1)C1(Cl)CC1 (single isomer, unassigned) [Compound 251]	–	–	–	–	100	100	3	100
OC(Cn1cncn1)(C1=NOC(COc2ccc(Cl)cc2)C1)C1(Cl)CC1 (single isomer, unassigned) [Compound 252]	–	–	–	–	100	89	2	78
CC(C)(C)C(O)(Cn1cncn1)C1=NOC(COc2cccc(C(F)(F)F)c2)C1 (single isomer, unassigned) [Compound 253]	–	–	–	–	100	100	3	99
CC(C)(C)C(O)(Cn1cncn1)C1=NOC(COc2cccc(C(F)(F)F)c2)C1 (single isomer, unassigned) [Compound 254]	–	–	–	–	100	99	0	99
CC(C)(C)C(O)(Cn1cncn1)C1=NOC(COc2ccc(Cl)cc2Cl)C1 (single isomer, unassigned) [Compound 255]	–	–	–	–	100	100	1	100
CC(C)(C)C(O)(Cn1cncn1)C1=NOC(COc2ccc(Cl)cc2Cl)C1 (single isomer, unassigned) [Compound 256]	–	–	–	–	100	99	0	97
CC(C)(C)C(O)(Cn1cncn1)C1=NOC(COc2ccc(Cl)c(Cl)c2)C1 (single isomer, unassigned) [Compound 257]	–	–	–	–	100	100	29	100
CC(C)(C)C(O)(Cn1cncn1)C1=NOC(COc2ccc(Cl)c(Cl)c2)C1 (single isomer, unassigned) [Compound 258]	–	–	–	–	100	100	0	100
COc1ccc(OCC2CC(C(O)(Cn3cncn3)C(C)(C)C)=NO2)cc1 (single isomer, unassigned) [Compound 259]	–	–	–	–	92	99	0	99
COc1ccc(OCC2CC(C(O)(Cn3cncn3)C(C)(C)C)=NO2)cc1 (single isomer, unassigned) [Compound 260]	–	–	–	–	98	100	1	99
CCC(C)(C)C(O)(Cn1cncn1)C1=NOC(COc2ccc(C(F)(F)F)cc2)C1 (single isomer, unassigned) [Compound 261]	–	–	–	–	100	100	92	100
CCC(C)(C)C(O)(Cn1cncn1)C1=NOC(COc2ccc(C(F)(F)F)cc2)C1 (single isomer, unassigned) [Compound 262]	–	–	–	–	99	98	41	0

— patent publication US20160242416A1, “FUNGICIDAL ISOXAZOLINE CARBINOLS” (E I DU PONT DE NEMOURS AND COMPANY, priority 2015, published 2016)
